Measurements published in patent publication US20090162277A1, “Lysophospholipids Solubilized Single-Walled Carbon Nanotubes” (Clemson University, priority 2005, published 2009).
Read-outs that look alike come from different tables or passages of the source.

Experiments:
[1] = Solubility assay of SWNTs dispersed in PBS with phospholipids (optical density of supernatant); type: physicochemical
Excerpt: Pristine SWNTs were synthesized using arc-deposition method. The average diameter of the SWNTs was approximately 1.4 nm measured by Raman spectroscopy and the average molecular weight of the SWNTs was 1×10^6 Dalton (Da) estimated from TEM. To measure the solubility provided by pure phospholipids, SWNTs were dispersed in phosphate buffered saline (PBS, pH=7.4) containing phospholipids of varying amounts. […] The weight ratio of solubilized SWNTs to LPC was approximately 1:10 corresponding to a molar ratio of 1:20,000 at saturation (FIG. 2b), indicating the high binding capacity of SWNTs.
Solubility Assays. Glycerol phospholipids and lysoglycerophopholipids were purchased from Avanti Polar Lipids, Inc, AL. Cell growth mediums NB and RPMI fortified with 10% FBS were obtained from Difco and Gibco (Invitrogen), respectively. SWNTs of 1 mg were placed in a series of eppendorf tubes containing lysophospholipids LPC 18:0, PC 24:0, PG 36:2, and PE 32:0 of 10, 40, 100, 400 μg and 1, 4, 10, 40 mg in 1 mL PBS solution. The eppendorf tubes were placed in a water bath and sonicated for 1 hr at room temperature. The solution was centrifuged for 3 min at 6,177 g. Approximately 0.3 mL of the supernatant was transferred into a glass cuvette and read for optical density against a blank at 360 nm. Size Exclusion Chromatography. Sepharose CL-4B beads (Sigma) having an exclusion limit molecular weight of 20×10^6 Da were used for gel filtration chromatography in a 10 mm (diameter)×150 mm (length) open column. The flow rate was produced by gravity at approximately 0.5 mL/min. Samples in 1×PBS of 40 μL were loaded onto the column with 1 M acetic acid as the mobile phase. Molecular weight markers with visible colours were used for calibration. The dark colour of the lysophospholipid dispersed SWNTs was monitored visually by comparing the elution volume with those of standard compounds. SWNT-LPC complexes were centrifuged at 16,060 g and SWNT-LPA complexes centrifuged at 6,177 g for 3 min. Their supernatants were used for size exclusion chromatography. TEM Experiment. Buffered solutions of SWNT-LPC and SWNT-LPG were sonicated for 1 min. The solutions were placed on holey carbon grids for 1 min and the excess drawn off with filter paper. The grid was negatively stained with a 2% uranyl acetate solution for 1 min. The images were recorded at magnification ranges from 400,000 to 600,000 times with the Hitach 7600 transmission electron microscope at 100 and 120 kV. Bioassay. Free lysophospholipids and micelles in SWNT-lysophospholipid solution were removed by filtration through 100 kDa Microcon (Amicon, Inc) centrifugation tubes and washed 4 times. The resulting lysophospholipid-free and micelle-free SWNT-LPC complexes were tested by […] bioassay using colon cancer (CACO-2) and macrophage (THP-1) cell lines. Each cell line was incubated in its own 8-well chamber slide (LabTek) for 48 hr at 37° C. in a CO2 incubator. Prior to treatment, cell adhesion was checked by differential interference contrast (DIC) microscopy using a Zeiss 135 Axiovert inverted microscope. Treatments ranging from 5 to 40 ppm of lysophospholipid-free and micelle-free SWNT-LPC complexes were added to each adherent cell line and incubated for 3 hr at 37° C. in a CO2 incubator. After incubation, control and treated cells were fixed with 4% paraformaldehyde for 30 min, washed in PBS and subjected to an APO-BrdU TUNEL assay (Invitrogen). This assay detects the onset of apoptosis by fluorescent detection of nuclear DNA fragments or DNA breaks. Cells were labeled with deoxythymidine analog 5-bromo-2′-deoxyuridine 5′ triphosphate (BrdUTP) followed by the addition of Alexa-Fluor 488 labeled anti-BrdU antibody. Propidium iodide was used to image the total DNA content of cells. The prepared cells were imaged using a Zeiss 510 LSM confocal fluorescence microscope.

MCF7 cells = test: Rd-LPE translocation across cell membranes (rhodamine fluorescence imaging); type: cell-based; details: incubation 0.5 to 3.0 hours
Experimental: The SWNT lipid assemblies described above may be used to form an “optical switch” using rhodamine-lysophosphoethanolamine (Rd-LPE) and SWNTs. […] The construct of a Rd-LPE molecule and a coupled SWNT functions as a fluorescence resonance energy transfer (FRET) pair. […] FIG. 7A sets forth a control image without SWNTs. Rd-LPE was incubated with MCF7 cells for three hours. […] Images 7C through 7F show increased translocation of Rd-LPE across the MCF7 cells with respective incubation times of 0.5, 1.0, 2.0, and 3.0 hours. […] Further, the fluorescence is indicative that a physical separation between the SWNT and the Rd-LPE has occurred since the quenching effect was not observed.

| Compound | solubility of SWNTs provided by the phospholipid [1] | other results |
| --- | --- | --- |
| CCCCCCCCCCCCCCCC(=O)OCC(COP(=O)(O)OCCN)OC(=O)CCCCCCCCCCCCCCC (stereo not shown) [PE 32:0, 1,2-dipalmityolphosphatidylethanolamine, reference compound] | None of the above phospholipids provided good solubility | – |
| CCCCCCCC/C=C\CCCCCCCC(=O)OCC(COP(=O)(O)OCC(O)CO)OC(=O)CCCCCCC/C=C\CCCCCCCC (stereo not shown) [PG 36:2, 1,2-dioleoylphosphatidylglycerol, reference compound] | None of the above phospholipids provided good solubility | – |
| lysophosphatidylcholine [LPC 18:0] | – | effectiveness in dispersing SWNTs in PBS relative to SDS, on per molecule basis ([1]; 6,177 g RCF at tip): approximately 2.5 times; effectiveness in dispersing SWNTs relative to SDS ([1]; 16,060 g RCF at tip): one order of magnitude more effective than SDS; solubility of SWNTs provided by the phospholipid ([1]; SWNTs in PBS pH=7.4, sonication 1 hr at room temperature): completely solubilized |
| rhodamine-lysophosphoethanolamine [Rd-LPE] | – | translocation across the cell membrane (intracellular rhodamine fluorescence) (MCF7 cells): minimal Rd-LPE translocation |
| lysophosphatidylglycerol [LPG 18:0] | Comparable solubility | solubility of SWNTs compared with SDS [1]: slightly better than SDS |
| lysophosphatidic acid [LPA 16:0] | Comparable solubility | – |
| CCCCCCCCCCCCCC(=O)OC[C@H](COP(=O)([O-])OCC[N+](C)(C)C)OC(=O)CCCCCCCCCCCCC [PC 24:0, dimyristoyl phosphatidyl choline, reference compound] | None of the above phospholipids provided good solubility | – |
